In publication PMC4912613, “A broad analysis of resistance development in the malaria parasite” (Nature Communications, 2016):
Where two headings read alike, the source gives them in different places.

Columns and labels:
[1] = system: GNF449-R2 (PfATP4 I203L and P990R, parent Dd2); assay: Cross-resistance EC50 assay, GNF449-R2; assay type: cell-based; conditions: Plasmodium falciparum, SYBR green 72 hour assay, asynchronized parasites, 96-well or 1536-well format
Source text: (§1) To evaluate potential overlapping activity against known antimalarial drug targets, we performed dose-response studies with each compound against our assembled set of drug-resistant lines and their corresponding parents, in an asexual blood stage proliferation assay (Table 1). Comparisons were made to the drug-sensitive strain 3D7 when a parent was unavailable (TM90C2A, W2 and Dd2). As laboratories conducted EC50 assays with different strains and protocols, all comparisons were made between assays from the same laboratory and under the same assay conditions. Compounds displaying >5-fold EC50 shifts relative to the parent or sensitive strain were flagged as having potentially non-novel targets. Average fold shifts per strain ranged from 0.82 to 2.34, with a median of 1.23 indicating there was not common resistance to any one resistant clone. No resistance patterns were observed when classifying the compounds based on chemical structure, but this was not surprising given the diversity of compounds chosen. On the other hand, given that these confirmed compounds were derived from larger unconfirmed hit lists to which some filtration criteria may have been applied (for example, elimination of obvious dihydrofolate reductase inhibitors[32]), some[10][11][12][13] pre-existing bias may exist in the set. […]
(§2) Alternatively, a SYBR Green-based proliferation approach was used for the 72-h assay, as previously described. Briefly, a culture of either synchronized or asynchronous parasitized RBCs (0.3% parasitemia and 4% haematocrit) in screening medium (identical to supplemented medium above except no serum was added) was exposed to serial drug dilutions. Plates were incubated at 37 °C and gassed with 93% N2, 4% CO2 and 3% O2 for 72 h. Following incubation, 10 × SYBR Green I (Invitrogen; supplied in 10,000 × concentration) in lysis buffer ([…], 5 mM EDTA, 0.16% Saponin wt per vol and 1.6% Triton X vol per vol) was added to the wells and the plates were incubated overnight at room temperature before plate reading. EC50 assays were repeated three times, taking the average EC50 value from each assay set, and removing any outliers using a single iteration of Grubbs' test, eliminating values with z-scores above the critical z-value (α=0.05). The raw EC50 values for synchronized parasites assayed in a 384-well format are listed in Supplementary Data 4. The raw EC50 values for asynchronous parasites assayed in a 96 or 1536-well format are listed in Supplementary Data 5.
(§3) EC50 values for each strain were compared with those of the corresponding parent strain to determine fold-shift changes and identify resistance. To minimize the cause variance between assays, all comparisons were conducted between strains assayed under identical conditions. A one-way ANOVA followed by a Dunnet's post-test was conducted in GraphPad Prism to identify significant changes between the parent and resistant strain.

[2] = system: P. falciparum strain 3D7; assay: Asexual blood stage 3H-hypoxanthine incorporation assay, 3D7; assay type: cell-based, Plasmodium falciparum; conditions: Plasmodium falciparum
Protocol: (§4) The 48-h assay was carried out in a 96-well format following standard methods using the ^3H-hypoxanthine incorporation assay. The raw EC50 values corresponding to this assay can be found in Supplementary Data 3. Briefly, this assay relies on the parasite incorporation of labelled hypoxanthine that is proportional to P. falciparum growth. A culture of parasitized RBCs (0.5% parasitemia with a percentage of ring stage higher than 70% of total parasitemia, 2.0% haematocrit) in RPMI-1640, […] and 5 μM hypoxanthine was exposed to drug serial dilutions. Plates were incubated for 24 h at 37 °C, 5% CO2, 5% O2 and 90% N2. After 24 h of incubation, ^3H-hypoxanthine was added and plates were incubated for an additional 24-h period. After that, parasites were harvested on a glass fibre filter using a TOMTEC Cell Harvester 96. Filters were dried and melt-on scintillator sheets were used to determine the incorporation of ^3H-hypoxanthine. Radioactivity was measured using a microbeta counter. Data were normalized using the incorporation of the positive (parasitized RBCs without drug) and negative (same culture with artesunate at 2 μM) controls. All assays were conducted in triplicate using three independently grown cultures, and EC50 values were determined using the XLfit add-in module for Excel (version 2.3.1) from Grafit (version 5.3.1.3), where parameter h is the assay hill slope, x is the compound concentration and y is the inhibition of growth effect. The XLfit equation is: […]

[3] = system: ProRS (prolyl t-RNA synthetase L482H, parent Dd2); assay: Cross-resistance EC50 assay, ProRS; assay type: cell-based; conditions: Plasmodium falciparum; SYBR green 72 hour assay; synchronized parasites; 384-well format; strain ProRS (Dd2 parent)
Source text: as §1, §2, §3

[4] = system: W2; assay: Cross-resistance EC50 assay, W2 parent; assay type: cell-based, Plasmodium falciparum; conditions: for EC50: Plasmodium falciparum, 48 h, read-out: W2F6 (PARENT) Average EC50
Source text: Multidrug resistance alleles, including mutations in P. falciparum chloroquine resistance transporter (pfcrt) and P. falciparum multi-drug resistance transporter 1 (pfmdr1) are very common in field isolates. Therefore, we sought to assess the degree to which pre-existing resistance alleles would contribute to a loss of potency for this diverse collection of small molecule compounds. Fifteen clones derived from three main parent lines were chosen to maximize diversity in mutated pathways and genetic backgrounds, thus representing the variety of resistance seen in the field: 3D7 (ref. [23]), W2 (ref. [24]) or Dd2 (ref. [25]). The 3D7 line originates from the clone of a Netherlands clinical isolate strain[23][26] and is generally considered to be drug sensitive, though it does convey resistance to sulfadoxine. Conversely, W2 (ref. [24], [27]) and Dd2 (ref. [25]) are multi-drug-resistant lines originating from the Indochina III/CDC isolate, which contain point mutations in pfcrt as well as amplifications in pfmdr1 and GTP cyclohydrolase.
To evaluate potential overlapping activity against known antimalarial drug targets, we performed dose-response studies with each compound against our assembled set of drug-resistant lines and their corresponding parents, in an asexual blood stage proliferation assay (Table 1). Comparisons were made to the drug-sensitive strain 3D7 when a parent was unavailable (TM90C2A, W2 and Dd2). As laboratories conducted EC50 assays with different strains and protocols, all comparisons were made between assays from the same laboratory and under the same assay conditions. Compounds displaying >5-fold EC50 shifts relative to the parent or sensitive strain were flagged as having potentially non-novel targets. Average fold shifts per strain ranged from 0.82 to 2.34, with a median of 1.23 indicating there was not common resistance to any one resistant clone. No resistance patterns were observed when classifying the compounds based on chemical structure, but this was not surprising given the diversity of compounds chosen. On the other hand, given that these confirmed compounds were derived from larger unconfirmed hit lists to which some filtration criteria may have been applied (for example, elimination of obvious dihydrofolate reductase inhibitors[32]), some[10][11][12][13] pre-existing bias may exist in the set.
as §4
Alternatively, a SYBR Green-based proliferation approach was used for the 72-h assay, as previously described. […]

[5] = 3D7, asexual stage, P. falciparum 3D7, read-out: 3D7 EC50

Compound `CCCN(CCC)CC(O)COc1ccccc1C(=O)Nc1ccccc1` (stereo not drawn) [MMV006455] has an EC50 [1] of 0.309 µM, an EC50 [2, 5] of 530 nM and an EC50 [3] of 897 nM. It also gave an EC50 [4] of 106 nM.
Work on `Cc1ccc(Cn2c(N3CCC(C(=O)NCc4cccs4)CC3)nc3ccccc32)cc1` [MMV007564] yielded an EC50 [1] of 0.739 µM, an EC50 [2, 5] of 580 nM and an EC50 [3] of 416 nM. The EC50 [4] was 503 nM.
`Nc1ncc(-c2cn[nH]c2)cc1-c1nc2ccc(F)cc2[nH]1` [MMV023367] showed an EC50 [1] of 2.66 µM, an EC50 [2, 5] of 302 nM and an EC50 [3] of 517 nM. It also gave an EC50 [4] of 244 nM.
`O=C(NC(c1ccccc1)c1ccc2cccnc2c1O)c1ccccc1` (stereo not drawn) [MMV666080] showed an EC50 [1] of 1.11 µM, an EC50 [2, 5] of 845 nM and an EC50 [3] of 571 nM. It also gave an EC50 [4] of 3160 nM.
Work on `CCCOCc1cc(CN2CCN(c3cccc(Cl)c3)CC2)c(O)c2ncccc12` [MMV000787] yielded an EC50 [1] of 1.7 µM, an EC50 [2, 5] of 942 nM and an EC50 [3] of 484 nM. The EC50 [4] was 792 nM.
`Cc1ccc(Oc2ncccc2C(=O)Cc2cccc3cccnc23)c(C)c1` [MMV020746] showed an EC50 [1] of 2.63 µM, an EC50 [2, 5] of 76 nM and an EC50 [3] of 278 nM. For the same compound, the EC50 [4] was 247 nM.
With `COC(=O)c1ccc(C2C3=C(O)CC(c4ccc(F)cc4)CC3=Nc3ccccc3N2C(=O)c2ccccc2)cc1` (stereo not drawn) [MMV011438] the EC50 [1] was 0.552 µM, the EC50 [2, 5] was 431 nM and the EC50 [3] was 220 nM. For the same compound, the EC50 [4] was 644 nM.
`CN(C)S(=O)(=O)c1cc(-c2ccc3nccc(-c4cccc(S(N)(=O)=O)c4)c3c2)cnc1N` [MMV024038] showed an EC50 [1] of 1 µM, an EC50 ([2]; 3D7, text value, read-out: asexual stage EC50) of 228 nM and an EC50 [3] of 143 nM. It also gave an EC50 [4] of 327 nM.
For `COc1ccc(-c2nc(NC(=O)Cc3ccc4c(c3)OCCO4)sc2C)cc1` [MMV019719], the EC50 [1] was 0.405 µM, the EC50 [2, 5] was 164 nM and the EC50 [3] was 244 nM. For the same compound, the EC50 [4] was 143 nM.
With `COCCNCC(O)Cn1c2ccc(Cl)cc2c2cc(Cl)ccc21` (stereo not drawn) [MMV019017] the EC50 [1] was 0.636 µM, the EC50 [2, 5] was 480 nM and the EC50 [3] was 340 nM. The EC50 [4] was 138 nM.
`CCOc1cc2c(cc1OCC)C(c1cc(Cl)ccc1O)NCC2` (stereo not drawn) [MMV000478] showed an EC50 [1] of 0.648 µM, an EC50 [2, 5] of 1070 nM and an EC50 [3] of 622 nM. The EC50 [4] was 172 nM.
For `COc1cc(-c2nc(-c3ccccc3)c(-c3ccccc3)[nH]2)cc(OC)c1O` [MMV020750], the EC50 [1] was 1.47 µM, the EC50 [2, 5] was 342 nM and the EC50 [3] was 919 nM. For the same compound, the EC50 [4] was 1870 nM.
`OC(CNC1CCCCC1)Cn1c2ccccc2c2ccccc21` (stereo not drawn) [MMV009063] gave an EC50 [1] of 0.457 µM, an EC50 [2, 5] of 790 nM and an EC50 [3] of 144 nM. The EC50 [4] was 126 nM.
In the case of `CCN(CC)S(=O)(=O)c1ccc(-c2csc(Nc3ccc(C)c(C)c3)n2)cc1` [MMV009108], the EC50 [1] is reported as 1.01 µM, the EC50 [2, 5] is reported as 930 nM and the EC50 [3] is reported as 373 nM. It also gave an EC50 [4] of 378 nM.
`CC(C)(C)OC(=O)N1CCN(c2ccccc2NC(=O)c2cccc(C(F)(F)F)c2Oc2ccc(F)cc2)CC1` [MMV030666] was tested, and the EC50 [1] was 0.248 µM, the EC50 [2, 5] was 486 nM and the EC50 [3] was 284 nM. It also gave an EC50 [4] of 298 nM.
`O=C(Nc1ccsc1C(=O)NC1CCCCC1)c1ccc(F)cc1` [MMV665939] gave an EC50 [1] of 2.21 µM, an EC50 [2, 5] of 1040 nM and an EC50 [3] of 2380 nM. The EC50 [4] was 9880 nM and the “EC50 fold-shift, W2 compared with 3D7” value ([4]; loss of efficacy) was 9.5 ×.
For `O=C(Nc1ccccc1O)c1ccc(Oc2cccc(C(=O)Nc3ccccc3O)c2)cc1` [MMV665888], the EC50 [1] was 0.972 µM, the EC50 [2, 5] was 1210 nM and the EC50 [3] was 495 nM. For the same compound, the EC50 [4] was 515 nM.
`O=C(NCC(CCCN1CCC(c2c[nH]c3ccccc23)CC1)c1ccccc1)Nc1ccc(Cl)c(Cl)c1` (stereo not drawn) [MMV029272] was tested, and the EC50 [1] was 0.373 µM, the EC50 [2, 5] was 136 nM and the EC50 [3] was 592 nM. For the same compound, the EC50 [4] was 836 nM.
`COc1cc(-c2nc(-c3ccccc3)c(-c3ccccc3)[nH]2)ccc1OCCN(C)C` [MMV027496] gave an EC50 [1] of 2.33 µM, an EC50 [2, 5] of 111 nM and an EC50 [3] of 311 nM. For the same compound, the EC50 [4] was 272 nM.
Work on `CCCCCCCN(Cc1ccc(OC(C)(C)C(=O)OCC)cc1)C(=O)Nc1ccc(Cl)cc1OCC` [MMV021735] yielded an EC50 [1] of 1.78 µM, an EC50 [2, 5] of 383 nM and an EC50 [3] of 269 nM. The EC50 [4] was 361 nM.
